A short description of assay [1]: H2O2 scavenging by peroxalate chemiluminescence (diphenyl oxalate, rubrene). As to the method:
FIG. 21 is a bar graph illustrating H2O2-scavenging by BRAP-encapsulated PLGA microparticles. BRAP-encapsulated PLGA microparticles were incubated in H2O2 solution (10 μM) for 10 minutes, and the level of H2O2 was determined by peroxalate chemiluminesce using rubrene (1 mg) and diphenylperoxalate (10 mg).
Without wishing to be limited by any theory, BRAP could scavenge H2O2 during its H2O2-mediated boronate oxidation. This possibility was investigated using peroxalate chemiluminescence. Peroxalate chemiluminescence has been used as a versatile tool for the detection of a variety of chemical species including fluorescent molecules and H2O2 because of its excellent specificity and simplicity (Hadd, et al., 1999, J. Chem. Educ. 76:1237; Lee, et al., 2011, Bull. Korean Chem. Soc. 32:2187). […] A majority of H2O2 was scavenged by the same concentration of BRAP within 1 minutes.
The ability of the boronate compound to scavenge H2O2 was evaluated by measuring the chemiluminescence intensity after the reaction with diphenyl oxalate solution including rubrene. The boronate (1 μM, or 10 μM) was added in the H2O2 solution (10 μM). After 1 min reaction with H2O2, diphenyl oxalate solution was added to the H2O2 solution, and the chemiluminescence intensity was measured by using a luminometer (Femtomaster FB 12, Zylux Corporation, TN, US; FIG. 13).
The ability of BRAP to scavenge H2O2 was evaluated by measuring the chemiluminescence intensity after the reaction with diphenyl oxalate solution including rubrene. BRAP (1 μM, 5 μM, 10 μM, 20 μM) was added in the H2O2 solution (10 μM). After 1, 5 or 10 min reaction with H2O2, diphenyl oxalate solution was added to the H2O2 solution, and the chemiluminescence intensity was measured by using a luminometer (Femtomaster FB 12, Zylux Corporation, TN, US).

The subject of the next assay is cardiac I/R injury. The assay can be described thus: Mouse model of cardiac I/R injury. It counts as in vivo. As to the method:
The beneficial effects of BRAP were further investigated using a mouse model of cardiac I/R injury in vivo. After 45 minutes of ischemia, BRAP (1.5 mg/kg) or vehicle was administered i.p. at the time of reperfusion, and then daily (1.5 mg/kg/day) for 2 weeks. For cardiac functional analysis, pressure-volume (PV) loop measurement and echocardiography were performed at 2 weeks after I/R surgery.
Studies were then performed to determine whether the benefits of BRAP after I/R were associated with attenuation of oxidative stress, inflammation, and apoptosis. These mechanistic analyses were performed in heart tissues 24 hours after cardiac I/R injury. […] BRAP administration decreased TNF-α and MCP-1 expressions compared with vehicle-treated mice.
Cardiac I/R surgery was performed in 12 week-old male mice as described in Choudhury, et al., 2011, Basic Res Cardiol 106:397. Briefly, mice were anaesthetized and placed on a rodent ventilator (model 687, Harvard Respirator). After thoracotomy, the left anterior descending artery (LAD) artery was identified and ligated with a 7-0 silk suture tied around a specialized 30 G-catheter. The animal remained under anesthesia and ventilation for 45 min of ischemia, after which reperfusion was achieved by cutting the suture and re-establishing arterial perfusion. Sham operated mice underwent the same procedure without LAD occlusion.
Cardiac function was evaluated using the pressure-volume loop measurement and echocardiography 2 weeks after I/R as described in Lee, et al., 2013, Sci Rep 3:2233. Pressure-volume parameters were measured after isoflurane (2%) inhalant anesthesia using a 1.4 Fr. micro-tip pressure-volume catheter (Scisense Inc, Ontario, Canada) inserted into the right common carotid artery. The catheter was gently advanced into the left ventricle to obtain LV hemodynamic parameters. Data was recorded using a Powerlab system (ADInstruments, Colorado Springs, Colo.). Beat by beat pressure-volume parameters including heart rate (HR), stroke volume (SV), stroke work (SW) and cardiac output (CO) were measured and analyzed using CardioSoft Pro software (CardioSoft, Houston, Tex.). Transthoracic echocardiography was performed using a Vevo2100 ultra-high frequency small animal imaging system with MS400 transducer (18-38 MHz) (Visualsonics, Toronto, Canada).
For liver apoptosis assay, terminal deoxynucleotidyl transferase dUTP nick end labeling (TUNEL) staining was performed using a DeadEnd™ Fluorometric TUNEL kit (Promega, Madison, Wis.). Tissue sections were stained for nuclei (4′,6-diamidino-2-phenylindole (DAPI) staining) and apoptotic nuclei (TUNEL staining) and analyzed using a confocal laser scanning microscope. For heart tissues, TUNEL staining was performed using in situ cell death detection Kit, fluorescein (Roche Applied Science, Indianapolis, Ind.). To distinguish cardiomyocyte from non-cardiomyocyte nuclei, triple stain for nuclei (DAPI staining), apoptotic nuclei (TUNEL staining), and cardiomyocytes (α-Actinin staining) was used, and the stained sections were analyzed using confocal microscopy. A minimum of ˜10 high power fields with ˜2000 nuclei/field were counted for each sample.
The activity of caspase-3 was determined with colorimetric assay kit (R&D Systems, Minneapolis, Minn.) as described in Choudhury, et al., 2011, Basic Res Cardiol 106:397; Bae, et al., 2010, Am J Physiol Heart Circ Physiol 299:H1374. Briefly, protein samples were added to substrates of Acetyl-Asp-Glu-Val-Asp-p-nitroanilide. The enzyme-catalyzed release of p-nitroanilide was measured at 405 nm. For PARP activity assay, activity was measured at 450 nm by incorporation of biotinylated poly (ADP-ribose) onto histone-coated proteins in plate using colorimetric assay kit (R&D Systems, Minneapolis, Minn., USA).
Heart tissues were collected for molecular analyses were performed in Bae, et al., 2010, Am J Physiol Heart Circ Physiol 299:H1374. […]

Assay [2] has as its system renal ischemia/reperfusion (I/R) injury. The assay can be described thus: Kidney I/R injury model in the mouse, oral BRAP. It counts as in vivo. As to the method: BRAP administered orally was tested in a kidney I/R injury model in the mouse. In this model, one of the mouse's kidney was subjected to ischemia for about 30 min, using a combination of unilateral clamping and contralateral nephrectomy. BRAP was administered orally to the mice at two time points: the night before the surgery, and immediately before the I/R surgery. The read-out markers after I/R comprised: creatinine levels 24 hours after reperfusion; tumor necrosis factor alpha (TNF-α) and monocyte chemo-attractant protein-1 (MCP-1) (both inflammatory markers); DHE staining (monitoring for ROS generation); and TUNEL staining (monitoring for apoptosis).

The mark [3] stands for this setting: 1.5 mg/kg i.p. at reperfusion then daily for 2 weeks.
Where [4] appears, read: 24 hours after I/R, compared with vehicle-treated mice.
Where [5] appears, read: oral administration, 24 hours after reperfusion.

As to `CC1(CO)COB(c2ccc(CO)cc2)OC1` [BRAP, (4-(5-(hydroxymethyl)-5-methyl-1,3,2-dioxaborinan-2-yl)phenyl)methanol], the “chemiluminescence intensity (H2O2 scavenging)” value in assay [1] (H2O2 solution 10 μM, BRAP, concentration-dependent) is “significant reduction in chemiluminescence intensity”. Also, in assay [1] (same concentration of BRAP as H2O2), the “time in which a majority of H2O2 was scavenged” value was at most 1 min. Also, in the assay on cardiac I/R injury (setting [3]), the “I/R-induced cardiac dysfunction by PV loop analysis (CO, SW, EF)” value is on record as “significantly attenuated” and the “I/R-induced cardiac dysfunction by echocardiography (FS)” value was “significantly attenuated”. Moreover, in the assay with cardiac I/R injury (24 hours after I/R), the “TUNEL-positive cardiomyocytes (apoptosis)” value was “effectively inhibited” and the “caspase-3 activation in heart” value is given as “effectively reduced”. In addition, in the assay with cardiac I/R injury (setting [4]), the “MCP-1 mRNA expression in heart” value was “decreased” and the “TNF-α mRNA expression in heart” value was “decreased”. Further, the “DHE staining (ROS generation) in heart” value in the assay on cardiac I/R injury (heart tissue 24 hours after I/R) is given as “significantly decreased”. Further, the “renal function (creatinine levels)” value in assay [2] (daily oral administration 8 mg/kg, after 4 days) is on record as “significant improvement”. In assay [2] (oral administration), the “DHE staining (ROS generation) in kidney” value is “significantly reduced” and the “TUNEL staining (apoptosis) in kidney” value was “significantly reduced”. In assay [2] (setting [5]), the “activation of MCP-1 in kidney” value is recorded as “significantly attenuated” and the “activation of TNF-α in kidney” value is recorded as “significantly attenuated”.

The values are drawn from patent US10370391B2, “Hydrogen peroxide-activable, anti-oxidant compounds and methods using same” (Beth Israel Deaconess Medical Center, Inc., priority 2014, dated 2019).
